Laboratory results reported in BindingDB's records for doi:10.1021/jm990412m (University of Queensland, 2000).
Residues, ends and D or L forms follow the SMILES beside them.

Experiment: Binding affinity against Protease

Ki: 600 nM
SMILES: CSCC[C@H](NC(=O)[C@H](CCC(=O)O)NC(=O)[C@H](CC(=O)O)NC(C)=O)C(=O)N[C@@H](CCC(=O)O)C(=O)N[C@@H](CCC(=O)O)C(=O)N[C@@H](CS)C(=O)O [AcAsp-Glu-Met-Glu-Glu-Cys] (Ac-DEMEEC-OH)
